From patent US20240335427A1, “SMALL MOLECULE INHIBITION OF DEUBIQUITINATING ENZYME JOSEPHIN DOMAIN CONTAINING 1 (JOSD1) AS A TARGETED THERAPY FOR LEUKEMIAS WITH MUTANT JANUS KINASE 2 (JAK2)” (DANA-FARBER CANCER INSTITUTE, INC., priority 2021, published 2024)

How the values were obtained:
[1] = system: native DUBs (UCHL1, USP30 and JOSD1); experiment: Competitive activity-based protein profiling with quantitative mass spectrometry in HEK-293T lysates; type: binding; conditions: block of labeling by DUB activity-based probes
Method: Activity Based Protein Profiling (ABPP) assay. DUB targets were investigated using competitive ABPP with quantitative mass spectrometry. The ability to block labeling of 50 DUBs by ubiquitin-based DUB activity-based probes was quantitatively measured in HEK-293T lysates.
DUB ABPP of Compound Targets. Activity-based probes biotin-Ub-PA (UbiQ-076) and biotin-Ub-VME (UbiQ-054) were obtained from UbiQ Bio. DUB Activity based protein profiling was performed using conditions modified from those in Schauer, et al., 2020, Scientific Reports, 10:1-15, based on work by Lawson, et al., 2017 Oncotarget, 8:51296-316. HEK 293T cells were lysed (50 mM Tris pH 8.0, 150 mM NaCl, 5 mM MgC2, 0.5 mM EDTA, 0.5% NP-40, 10% glycerol, 1 mM tris(2-carboxyethyl)phosphine (TCEP), protease and phosphatase inhibitors) and the lysate was clarified by centrifugation, then diluted to 10 mg/mL. 200 μL aliquots were incubated at the indicated compound concentrations or DMSO for 5 hours at room temperature, final DMSO concentration 0.5%. Afterwards, the treated lysates were incubated with 1 μM each of Biotin-Ub-PA and Biotin-Ub-VME for 90 minutes at room temperature. […]
Specifically, quantitative mass spectrometry was utilized to measure the ability of compounds 1 and 2 to block labeling of […] native DUBs by ubiquitin-based DUB activity-based probes in HEK-293T lysates. […]

JAK2-V617F = experiment: JAK2 protein level by western blotting in Ba/F3-EPOR-JAK2-V617F cells; type: cell-based
Method: Immunoblotting and Immunoprecipitation. Protein lysate preparation, immunoblotting, and immunoprecipitation were carried out as previously described (Lamberto, et al., 2017 Cell Chem Biol., 224(12):1490-500 e11). Briefly, 0.7×10^6 cells were treated with compounds 1 and 2 at 0, 5, 10, […], cells were collected, and lysate was prepared in radioimmunoprecipitation assay (RIPA) buffer, JAK family and downstream signaling protein levels were detected by western blotting with the indicated antibodies. For immunoprecipitation, 1 mg protein for each sample was prepared and 1 μg antibody was used, immunoglobulin G (IgG) was added in same amount as nontargeting control.
A broader range of compounds 1 and 2, including concentrations lower than 1 μM, were also tested on growth of EPOR-JAK2-V617F-expressing Ba/F3 cells and parental Ba/F3 EpoR+ cells (24 hours treatment on 4000 cells per well) (FIG. 18-FIG. 18B). Cell growth inhibition (FIG. 17A-FIG. 17B, FIG. 18A-FIG. 18B) was tested on Ba/F3-EPOR-JAK2-V617F (-IL-3/WEHI) and parental Ba/F3-EPOR cells (+IL-3/WEHI) plated at 2000 cells per well, at 1, 3 and 10 μM for 24 hours using the Promega CellTiter Glo® assay.

## Cc1noc(C)c1-c1cccc2nc(NC(=O)[C@H]3CCN(C#N)C3)sc12 [Compound 2, (S)-1-cyano-N-(7-(3,5-dimethylisoxazol-4-yl)benzo[d]thiazol-2-yl)pyrrolidine-3-carboxamide]
[1]
  target engagement of UCHL1, USP30 and JOSD1: dose-dependent target engagement
JAK2-V617F; 18 hours, 10 μM compound 1 or 5 μM compound 2
  JAK2 degradation, independent western blotting: degradation of JAK2
JAK2-V617F; Ba/F3-EPOR-JAK2-V617F-expressing cells
  JAK2-V617F protein level: decreases in JAK2-V617F protein
